Laboratory results taken from patent US20080269161A1, “Compositions and Methods Relating to Mitochondrial Hyperpolarization in Neurological Disease” (priority 2005, published 2008).
“Also recorded” adds a separate entry of the source. Where two headings read alike, the source gives them in different places.

What was measured:
[1] = system: CA1 pyramidal neurons in hippocampal slices; parameters: species or system rodent
Experimental: CA1 pyramidal neurons were exposed to 1 μM cPAF or vehicle for 30-60min and simultaneously imaged and recorded by whole-cell patch clamp before and after delivery of a high-frequency stimulus (HFS: three 1s, 100 Hz trains, every 20 s) applied to Schaffer collateral axons via a bipolar stimulating electrode planted in the stratum radiatum. (A) Dendrite beading in a cPAF-exposed cell 45min after HFS, with no disruption of dendrite or spine morphology in control cells. […] (C) Excitatory synaptic transmission between Shaffer collateral axons and CA1 pyramidal neurons is strongly potentiated following HFS in control slices. […] (EPSP traces at baseline and 40 min from representative control cell and cPAF-treated beaded cell are at right.) […]
Explant hippocampal slices are exposed to HIV-1 neurotoxins±agents that reverse mitochondrial hyperpolarization. Beading and LTP are then be measured:
Hippocampal slice preparation: Brains from anesthetized P14-28 rodents are rapidly removed and cooled in sucrose based artificial cerebrospinal fluid (ACSF) containing in mM: 110 sucrose, 60 NaCl, 3 KCl, 1.25 NaH2PO4, 28 NaHCO3, 10 D-glucose, 0.5 CaCl2, 7 MgSO4, 0.6 ascorbate. The brains are blocked and fixed to a specimen stage with cyanoacrylate. Coronal slices (250-400 μm in thickness) are cut with a vibroslicer (World Precision Instruments, Fla., USA) equipped with a Peltier cooling system. The middle four to six slices of each hippocampus (with the entorhinal cortex removed) are placed into a holding chamber prior to use.
Measuring dendritic beading and postsynaptic potentials in single CA1 cells in hippocampal slices: Dendritic arbors of individual CA1 pyramidal cells are imaged while simultaneously recording excitatory postsynaptic potentials in the same cell by patch clamp recordings in whole-cell configuration. Recording pipettes ([…] resistance) are pulled from 1.5 mm borosilicate glass using a horizontal Flaming/Brown micropipette puller (Sutter Instrument Co, Calif.), fire-polished, and filled with intracellular recording solution (in mM: KCl 20, potassium gluconate 130, EGTA 0.5, HEPES 10, MgSO4 2, ATP 2.5, GTP 0.5, pH 7.3). In order to visualize dendrites of the recorded cell, Alexa 568 hydrazide (30 μM) is included in the recording pipette and is injected by small negative current pulses for 15-20 min prior to recording in order to fill the dendritic arbor. Hippocampal slices are bathed in artificial CSF (containing, in mM: NaCl 125, KCl 2.5, NaH2PO4 1.25, NaHCO3 25, CaCl2 2, MgCl2 1, D-glucose 25, oxygenated and buffered with 5% CO2). Membrane potentials of CA1 pyramidal cells are recorded in current clamp mode, and postsynaptic potentials are evoked by test pulses of constant-current stimulation applied via a bipolar stimulating electrode placed 50-200 μm away in the stratum radiatum. Bicuculline (10 μM) is included in the bath to isolate excitatory postsynaptic potentials. After at least 10 min of consistent baseline recording, a high-frequency LTP induction stimulus (HFS, consisting of four 1 s, 100 Hz trains delivered every 15 s) is applied. EPSPs are recorded for 60 min following HFS. At the same time, dendrites are imaged at 40× magnification by fluorescence microscopy, using a shutter to limit fluorescent light exposure and prevent phototoxic injury to the slice. Serial images of dendrites are compared to detect development of focal swellings along dendritic shafts following HFS. Cells are scored as beaded if swellings develop along any of their dendrites.
Field potential recording and induction of LTP in hippocampal slices: Single-cell recordings are complemented by extracellular field potential recordings: while single cell recordings allow correlation of electrophysiologic data with dendritic beading in the same cell, extracellular recordings sample responses from populations of dendrites and are less invasive. […]

[2] = system: mitochondrial membrane potential of rat cortical neurons; type: cell-based
Experimental: Curve fits are non-formulaic software interpolations of the data points.
Changes in mitochondrial function that could be associated with the increased vesicular activity were evaluated. Mitochondria generate the energy for synaptic transmission in the form of ATP, and as a byproduct of this oxidative phosphorylation, they are also one of the primary producers of intracellular ROS. Two key mitochondrial parameters were examined in response to Tat and PAF: 1) mitochondrial membrane potential (ΔΨm) [as assessed by mitochondrial uptake of the lipophilic cationic dyes tetramethylrhodamine ethyl or methyl ester (TMRE or TMRM respectively)], and 2) ATP production (as measured by luciferase assay). The electronegative mitochondrial membrane potential provides the driving force for calcium buffering and ATP production by the mitochondria, and as such, ΔΨm is frequently used as an indicator of mitochondrial health and energetic capacity. Moreover, fluctuations in ΔΨm can trigger mitochondrial release of pro-apoptotic factors, an event most frequently associated with a loss of ΔΨm.
Monitoring alterations in ΔΨm with TMRM: In the relevant methods described herein, changes in mitochondrial membrane potential (ΔΨm) in response to Tat or PAF treatment is assessed by TMRM, which must equilibrate across the plasma membrane before entering the mitochondria; and in whole cell applications dye concentration in the mitochondria is dependent on both plasma membrane potential (ΔΨp) and AΨm. At sufficiently low dye concentrations (TMRM =1 nM, i.e. high cell/dye ratio) and normal membrane potentials, ≧95% of the dye is in the mitochondria, and ≦1% in the media, which results in an approximately 100× sensitivity of the dye to ΔΨm over ΔΨp, given equivalent changes in plasma or mitochondrial membrane potential [Rottenberg, H. and S. Wu, Biochim Biophys Acta, 1998. 1404(3): p. 393-40].
For these methods, primary rodent neurons are treated with reagent under normal culture conditions for the indicated time period, followed by removal of the media, 1×2 minute wash in pre-warmed 37° C. HBSS plus 10 mM glucose and 10 mM HEPES (HBSS+), then incubation in HBSS+ with 1 nM TMRE/M. Following equilibration of the dye for 20 minutes to ensure distribution across the mitochondrial membrane, the cells are imaged while remaining in the 1 nM TMRE/M solution, as is necessary for a continued dye equilibrium state. Random field images are taken using an Olympus IX-70 microscope and 40× objective (fluorescent excitation: 545; emission: 610) and Apogee KX32ME CCD camera, and the mean relative fluorescent unit (RFU) value of the neuronal soma and processes (excluding mitochondria deficient regions) is quantified using Scanalytics IPLab software.

[3] = system: NO release by human primary monocytes; assay: Tat-induced nitric oxide release by primary monocytes (Griess reaction); type: cell-based; conditions: co-treatment with Tat, 8 h; R-PIA 1 μM
Experimental: Human primary monocytes were treated with Tat in the presence or absence of the indicated adenosine receptor agonists for 8 h, and nitric oxide levels in the culture medium of the cells were then quantitated using the Griess reaction (Active Motif). Data represent mean+SEM of three experiments.
(§1) The effect of adenosine receptor activation on Tat-induced upregulation of iNOS expression and NO release was then determined. […] In contrast, incubation of cells with 1 μM R-PIA (an adenosine A1 receptor agonist) had no effect on Tat-induced iNOS expression or NO release (FIG. 11), implicating the A2A and A3 receptor subtypes in this anti-inflammatory effect. ZM241385 (an A2AR antagonist) or MRS 1220 (an A3R antagonist) could prevent the anti-inflammatory effects of CGS21680 or IB-MECA, respectively.

[4] = system: iNOS expression in human primary monocytes; assay: Tat-induced iNOS expression in primary monocytes; type: cell-based; conditions: for prevention of the anti-inflammatory effects of CGS21680 or IB-MECA, respectively: Tat-treated monocytes, iNOS/NO
Experimental: as §1

cortical cultures = assay: Tat-induced apoptotic cell death in cortical cultures
Experimental: Quantifying Cell Death: Cell death is assessed by visualizing fragmented DNA per the TUNEL method as described previously as well [Perry, S. W., et al., J Neurosci Res, 2004. […] Briefly, after treatment in 24 well plates, cells are fixed with Histochoice MB Tissue Fixative (Amresco) then TUNEL-labeled with the ApopTag kit (Chemicon) according to kit instructions. Cells are visualized under Hoffman modulation contrast optics using a 40× objective, and images taken of ten random fields per well from 3 replicate wells per condition. Data is expressed as percent Apoptag-positive neurons [(# Apoptag positive neurons/)(Total neurons))33 100] (or Trypan blue positive neurons where applicable) per field, then field values averaged for a mean cell death value per well. Mean values from 3 or more (see “power” calculations below) wells are averaged for a final mean cell death value for each condition±SEM; the analyses is made without knowledge of the treatment group.

[5] = system: rat cerebellar granule neurons (CGNs); assay: Tat-induced apoptosis of cerebellar granule neurons (TUNEL); type: cell-based; conditions: Tat 500 nM, 48 h
Experimental: (§2) CGNs were exposed to HIV-1 Tat (Tat, 500 nM), or vehicle alone (NT), in the presence or absence of the A2A antagonist, ZM241385. After 48 h, cultures were analyzed for the percentage of apoptotic cells using the TUNEL assay. Data represent mean±SEM for one experiment that was performed in triplicate; data are representative of two independent experiments.
as §2, with “(No Tat),” for “(NT),”, “A2AR antagonists, ATL455 and ZM241385, or the A2AR agonists ATL313 and CGS21680.” for “A2A antagonist, ZM241385.”
(1) Primary rat cerebellar granule neurons (CGNs). CGNs represent a highly homogenous population of primary neurons which are susceptible to Tat and PAF-mediated cell killing and have been used in many of previous studies. CGN cells are isolated according to published procedures [Maggirwar, S. B., et al. 1999. J Neurochem 73:578-86] [Tong, N., et al. 2001. Eur J Neurosci 13:1913-22].
78(4): p. […] 22(6): p. 1102-6].
Primary rat cerebellar granule neurons (CGNs) were exposed to a neurotoxic concentration of HIV-1 Tat, in the presence or absence of an A2AR antagonist (ZM241385). […] It is important to note that CGNs express adenosine A2A receptors [Vacas, J., et al. 2003. Brain Res 992:272-280].
Primary cultures of rat cerebellar granule neurons (CGNs) were exposed to HIV-Tat ([…]) alone or together with increasing doses of the A2AR antagonist ATL-455 or A2A agonists ATL313 or CGS21680. Cells are treated with the test compounds for defined time intervals of up to 48 hours (1, 4, 8, 24, and 48 hours).

In the case of `N#CC(C#N)=NNc1ccc(OC(F)(F)F)cc1` [FCCP, Trifluorocarbonylcyanide Phenylhydrazone], the “Beading Prediction” value [1] was “Prevented”, the “LTP Prediction” value [1] was “Achieved” and the Δψm [1] was “Normalized”. For the same molecule, the Δψm ([1]; FCCP, no neurotoxin (vehicle)) was “Slightly”, the “effect on mitochondrial TMRE/M signal” value [2] was “substantially diminished; also recorded: loss of TMRM signal” and the “effect on ΔΨm” value [2] was “normalizes ΔΨm back to baseline levels but not below”.

For `CNC(=O)[C@H]1O[C@@H](n2cnc3c(NCc4cccc(I)c4)ncnc32)[C@H](O)[C@@H]1O` [IB-MECA], the “effect on Tat-induced NO secretion” value [3] was “complete abrogation” and the “inhibition of Tat-induced iNOS expression” value ([4]; co-treatment with Tat) was “roughly 50%”.

With `O=C(Cc1ccccc1)Nc1nc2ccc(Cl)cc2c2nc(-c3ccco3)nn12` [MRS 1220] the “prevention of the anti-inflammatory effects of CGS21680 or IB-MECA, respectively” value [4] was “prevent”.

In the case of `C[C@H](Cc1ccccc1)Nc1ncnc2c1ncn2[C@@H]1O[C@H](CO)[C@@H](O)[C@H]1O` [R-PIA], the “effect on Tat-induced NO secretion” value [3] was “no effect” and the “effect on Tat-induced iNOS expression” value ([4]; 1 μM) was “no effect”.

For `CCCCNC(=O)NS(=O)(=O)c1ccc(C)cc1` [Tolbutamide], the “toxicity, alone” value (cortical cultures; tolbutamide 100 μM alone) was “no toxicity”, the “effect on Tat's induction of apoptotic cell death” value (cortical cultures; tolbutamide 100 μM, Tat 0.1 or 2.5 μg/ml, 24 hours) was “attenuating apoptotic cell death; also recorded: partially attenuated” and the “effect on ΔΨm, alone” value ([2]; tolbutamide 100 μM alone) was “no significant effect”. For the same molecule, the “effect on Tat mediated rise in ΔΨm” value ([2]; tolbutamide 100 μM, Tat 0.1 or 2.5 μg/ml, 1 and 24 hours) was “blocked; also recorded: completely prevented”.

In the case of `Nc1nc(NCCc2ccc(O)cc2)nc2nc(-c3ccco3)nn12` [ZM241385, 4(2-[7-Amino-2-(2-furyl)[1,2,4]triazolo[2,3-a][1,3,5]triazin-5-ylamino]ethyl)phenol], the “effect on Tat-induced neuronal apoptosis” value [5] was “protect neurons; also recorded: protects neurons against Tat-induced apoptosis” and the “prevention of the anti-inflammatory effects of CGS21680 or IB-MECA, respectively” value [4] was “prevent”.

For TNF-α, the “effect on ΔΨm” value ([2]; neurotoxin alone) was “dose dependent increases”.
